Data on one compound can be found in publication PMC10590383, “Repurposing conformational changes in ANL superfamily enzymes to rapidly generate biosensors for organic and amino acids” (Nature Communications, 2023).

Usually EC50 stands for the concentration giving half of the maximal effect.

SMILES strings stand for the structures.

One experiment concerns the target T1, GECFINDER-Phe3.1 (Aneurinibacillus migulanus, UniProt P0C061, F234I).
T1 construct: gene grsA
The experiment is described as follows: Fluorescence dose-response of purified affinity-lowered […]-Phe3 mutants with phenylalanine, 100 mM Tris pH 7.5, room temperature, 1 mM ATP, 2.5 mM MgCl2. The format is biochemical. The text has this: (§1) Generally, industrial amino acid-producing strains produce phenylalanine at the grams per liter level, which greatly exceeds the dynamic range of […]-Phe3. Thus, we had to re-engineer the affinity of […]-Phe3 without affecting its ligand specificity, for phenylalanine to enable the screening of industrial phenylalanine-producing strains First, we performed virtual alanine scanning on the amino acid residues near the substrate pocket of […]-Phe3 using Discovery Studio 2019. […] Subsequently, we performed virtual saturation mutations on the F234 site (Supplementary Fig. 8b) and selected F234I, which has a medium mutation energy value ranking, for experimental verification. […] To further reduce the affinity of the F234I mutant ([…]-Phe3.1) for phenylalanine, a site-saturation library of A301 based on […]-Phe3.1 was created and screened. […] The substrate specificity and thermal stability of […]-Phe3.2 were evaluated.
(§2) Fig. 5 […] applies for FADS sorting. a Dose–response curves of purified […]-Phe3, 3.1 and 3.2 with increasing concentrations of phenylalanine. b Phenylalanine biosynthesis pathway in C. glutamicum. Dotted and dashed lines represented feedback inhibition and repression, respectively. Two target genes were highlighted in red. […] RBS strength was determined using a GFP reporter system. Scale bar represented GFP fluorescence normalized with OD600 nm. […]

The next experiment deals with T2, GECFINDER-Phe3.2 (Aneurinibacillus migulanus, UniProt P0C061, A301E/F234I).
T2 construct: gene grsA
The experiment is described as above. The format is biochemical.
From the text: as §1, §2

T2 sequence (P0C061 1-617 F234I/A301E): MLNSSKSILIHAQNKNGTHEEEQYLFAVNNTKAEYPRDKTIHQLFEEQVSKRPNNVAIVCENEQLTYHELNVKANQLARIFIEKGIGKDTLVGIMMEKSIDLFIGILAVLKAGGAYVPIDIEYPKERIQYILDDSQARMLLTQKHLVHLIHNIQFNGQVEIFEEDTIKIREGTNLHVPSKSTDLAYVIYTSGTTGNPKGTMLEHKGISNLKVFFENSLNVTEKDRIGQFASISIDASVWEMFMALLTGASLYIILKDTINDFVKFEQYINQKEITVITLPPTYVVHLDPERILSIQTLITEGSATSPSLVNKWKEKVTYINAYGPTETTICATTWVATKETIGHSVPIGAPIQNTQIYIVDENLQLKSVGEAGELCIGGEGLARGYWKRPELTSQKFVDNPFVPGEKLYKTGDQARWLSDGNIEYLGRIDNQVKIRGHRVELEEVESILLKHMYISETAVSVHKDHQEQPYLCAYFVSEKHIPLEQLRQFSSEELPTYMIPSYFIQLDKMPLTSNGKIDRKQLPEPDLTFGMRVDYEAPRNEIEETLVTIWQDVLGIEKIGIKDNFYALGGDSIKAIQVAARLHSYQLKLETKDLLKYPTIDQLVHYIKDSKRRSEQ
T1 sequence (P0C061 1-617 F234I): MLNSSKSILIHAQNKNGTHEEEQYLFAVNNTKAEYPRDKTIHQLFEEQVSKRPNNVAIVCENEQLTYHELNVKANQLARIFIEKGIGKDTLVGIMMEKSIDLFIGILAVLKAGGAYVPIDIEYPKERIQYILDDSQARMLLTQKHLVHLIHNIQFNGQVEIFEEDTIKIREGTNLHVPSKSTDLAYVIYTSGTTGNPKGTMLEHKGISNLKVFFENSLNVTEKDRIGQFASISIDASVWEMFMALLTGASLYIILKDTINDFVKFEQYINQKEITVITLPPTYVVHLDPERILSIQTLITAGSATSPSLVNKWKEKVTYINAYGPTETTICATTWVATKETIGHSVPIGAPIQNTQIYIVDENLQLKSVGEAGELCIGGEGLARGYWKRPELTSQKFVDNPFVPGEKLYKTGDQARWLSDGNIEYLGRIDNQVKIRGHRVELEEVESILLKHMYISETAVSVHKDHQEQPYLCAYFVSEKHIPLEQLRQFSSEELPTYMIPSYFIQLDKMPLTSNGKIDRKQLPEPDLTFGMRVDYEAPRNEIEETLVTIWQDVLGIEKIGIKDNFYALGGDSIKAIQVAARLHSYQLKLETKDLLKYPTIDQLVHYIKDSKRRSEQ

In the case of `N[C@@H](Cc1ccccc1)C(=O)O` [Phe, phenylalanine], the EC50 came to 7.51 µM at GECFINDER-Phe3.1 and 67.6 µM on GECFINDER-Phe3.2.
